Test results: ChEMBL document CHEMBL1145582, “4,5-Disubstituted oxazolidinones: High affinity molecular effectors of RNA function” (Bioorg Med Chem Lett, 2008)
pKd: −log10 of the molar value. Active and inactive are the calls of the source. The rule behind the calls is not given here.

Tests used:
[1] = Binding affinity at RNAs 3'-Fl-18-Rh-AM1A T box antiterminator model RNA by FRET assay; set-up: species or system Bacillus subtilis
[2] = Binding affinity at 3'-Fl-18-Rh-C11U T box antiterminator model RNA by FRET assay; set-up: species or system Bacillus subtilis
[3] = biological target: T1, Guanyl-specific ribonuclease T1 (Aspergillus oryzae (strain ATCC 42149 / RIB 40)) (UniProt P00651); test: Decrease in Aspergillus oryzae RNase T1 cleavage in AM1A T box antiterminator model RNA
T1 sequence (whole entry): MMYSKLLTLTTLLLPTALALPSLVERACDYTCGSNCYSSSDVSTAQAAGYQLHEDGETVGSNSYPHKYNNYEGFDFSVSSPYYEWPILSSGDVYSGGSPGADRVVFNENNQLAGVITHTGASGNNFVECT

[4] = biological target: T1, Guanyl-specific ribonuclease T1 (Aspergillus oryzae (strain ATCC 42149 / RIB 40)); test: Reduction of Aspergillus oryzae RNase T1 induced cleavage at position 8 of AM1A T box antiterminator model RNA; set-up: scale not given: the % may be the effect or the level left
Bacillus subtilis = test: Reduction of Bacillus subtilis tRNA-glycine-dependent antitermination at 1.3 mM in presence on RNA polymerase; set-up: scale not given: the % may be the effect or the level left
[5] = biological target: T1, Guanyl-specific ribonuclease T1 (Aspergillus oryzae (strain ATCC 42149 / RIB 40)); test: Reduction of Aspergillus oryzae RNase T1 cleavage in position 9 of AM1A T box antiterminator model RNA; set-up: scale not given: the % may be the effect or the level left
[6] = Binding affinity at AM1A T box antiterminator model RNA in presence of cognate tRNA; set-up: species or system Bacillus subtilis
[7] = biological target: T1, Guanyl-specific ribonuclease T1 (Aspergillus oryzae (strain ATCC 42149 / RIB 40)); test: Reduction of Aspergillus oryzae RNase T1 cleavage in position 7 of AM1A T box antiterminator model RNA; set-up: scale not given: the % may be the effect or the level left
[8] = biological target: T1, Guanyl-specific ribonuclease T1 (Aspergillus oryzae (strain ATCC 42149 / RIB 40)); test: Enhancement of Aspergillus oryzae RNase T1 cleavage in position 15 of AM1A T box antiterminator model RNA

| Structure (SMILES) | pKd [1] | pKd [2] | also measured |
| --- | --- | --- | --- |
| CC(=O)c1ccc(NC(=O)OC[C@H]2OC(=O)N[C@@H]2CN2CCN(c3ccccc3)CC2)cc1 | 6.05 | > 6.00 | Activity [3]: Active |
| O=C(Cc1ccccc1)OC[C@H]1OC(=O)N[C@@H]1Cc1ccccc1 | 5.05 | 3.90 |  |
| O=C(Cc1ccccc1)OC[C@H]1OC(=O)N[C@@H]1CN1CCOCC1 | 4.38 |  |  |
| CN(C[C@H]1NC(=O)O[C@@H]1COC(=O)Cc1ccccc1)c1ccccc1 | 4.21 | 3.91 |  |
| CN(CCc1ccccc1)C[C@H]1NC(=O)O[C@@H]1COC(=O)Cc1ccccc1 | 3.94 |  |  |
| CCCCCCCC(=O)OC[C@H]1OC(=O)N[C@@H]1CN(C)c1ccccc1 | 5.18 | 5.39 |  |
| O=C(Cc1ccccc1)OC[C@H]1OC(=O)N[C@@H]1CN1CCN(c2ccccc2)CC1 | 4.89 | 4.00 | Activity [4]: 41%; Activity (Bacillus subtilis): 40%; Activity [5]: 57%; pKd [6]: 4.19; Activity [7]: 44%; Activity [8]: 70% |
